Laboratory results from ChEMBL document CHEMBL4342484, “Structure-Activity Relationship for the Oxadiazole Class of Antibacterials” (ACS Med Chem Lett, 2020).
≈ marks a conversion by molar mass, not a printed value.

Experiments:
Staphylococcus aureus [1] = assay: Antibacterial activity against Staphylococcus aureus ATCC 29213 by broth microdilution method; assay type: functional
HepG2 = assay: Cytotoxicity against human HepG2 cells assessed as reduction in cell viability by XTT assay; assay type: cell-based
[2] = Plasma protein binding in human at […] incubated for 2 hrs by UPLC analysis; assay type: ADME, cell-free; settings: read-out: PPB (converted)
[3] = Hemolytic activity in human RBC relative to control; assay type: ADME, cell-based, Erythrocyte; settings: red blood cells (erythrocytes), read-out: Activity
Staphylococcus aureus [4] = assay: Antibacterial activity against vancomycin-resistant Staphylococcus aureus VRS2 clinical isolate by broth microdilution method; assay type: functional
[5] = system: Staphylococcus haemolyticus; assay: Antibacterial activity against Staphylococcus haemolyticus ATCC 29970 by broth microdilution method; assay type: functional
Enterococcus faecalis [6] = assay: Antibacterial activity against vancomycin-susceptible Enterococcus faecalis 201 clinical isolate by broth microdilution method; assay type: functional
Enterococcus faecalis [7] = assay: Antibacterial activity against Enterococcus faecalis ATCC 29212 by broth microdilution method; assay type: functional
Staphylococcus aureus [8] = assay: Antibacterial activity against vancomycin-resistant Staphylococcus aureus VRS1 clinical isolate by broth microdilution method; assay type: functional

Row | Compound | MIC (Staphylococcus aureus [1]) | also measured
1 | Oc1ccc(-c2nc(-c3ccc(Oc4ccccc4CBr)cc3)no2)cc1 | 8 µg/mL (≈ 18.9 µM) | –
2 | Oc1ccc(-c2nc(-c3ccc(OC4CCCNC4)cc3)no2)cc1 (stereo not drawn) | 64 µg/mL (≈ 190 µM) | –
3 | Oc1ccc(-c2nc(-c3ccc(Oc4cccc(I)c4)cc3)no2)cc1 | 4 µg/mL (≈ 8.77 µM) | –
4 | Oc1ccc(-c2nc(-c3ccc(Oc4cccc(CBr)c4)cc3)no2)cc1 | 4 µg/mL (≈ 9.45 µM) | –
5 | Clc1c[nH]nc1-c1nc(-c2ccc(Oc3ccc(I)cc3)cc2)no1 | 1 µg/mL (≈ 2.15 µM) | IC50 (HepG2): 30.7 µg/mL (≈ 66.1 µM); fraction unbound at 2 h [2]: 0.095; hemolysis [3]: 3.1%
6 | Oc1ccc(-c2nc(-c3ccc4c(c3)Oc3ccccc3O4)no2)cc1 | ≥ 128 µg/mL | –
7 | Oc1ccc(-c2nc(-c3ccc(OC4CNC4)cc3)no2)cc1 | 64 µg/mL (≈ 207 µM) | –
8 | Fc1ccc(Oc2ccc(-c3noc(-c4n[nH]cc4Cl)n3)cc2)cc1F | 0.5 µg/mL (≈ 1.33 µM) | IC50 (HepG2): 17.7 µg/mL (≈ 47.2 µM); fraction unbound at 2 h [2]: 0.011; hemolysis [3]: 1.3%
9 | Oc1ccc(-c2nc(-c3ccc4oc5ccccc5c4c3)no2)cc1 | ≥ 128 µg/mL | –
10 | NC(=O)c1ccccc1Oc1ccc(-c2noc(-c3ccc(O)cc3)n2)cc1 | ≥ 128 µg/mL | –
11 | CC(C)S(=O)(=O)Oc1ccc(-c2noc(-c3ccc(O)cc3)n2)cc1 | ≥ 128 µg/mL | –
12 | COc1ccc2oc3ccc(-c4noc(-c5ccc(O)cc5)n4)cc3c2c1 | ≥ 128 µg/mL | –
13 | O=C(O)c1ccccc1Oc1ccc(-c2noc(-c3ccc(O)cc3)n2)cc1 | > 128 µg/mL | –
14 | CC(=O)NCCOc1ccc(-c2noc(-c3ccc(O)cc3)n2)cc1 | > 128 µg/mL | –
15 | Oc1ccc(-c2nc(-c3ccc4oc5ccc(C(F)(F)F)cc5c4c3)no2)cc1 | ≥ 128 µg/mL | –
16 | CS(=O)(=O)c1ccc(Oc2ccc(-c3noc(-c4n[nH]cc4Cl)n3)cc2)cc1 | 128 µg/mL (≈ 307 µM) | –
17 | CN1[C@@H]2CC[C@@H]1CC(Oc1ccc(-c3noc(-c4ccc(O)cc4)n3)cc1)C2 (stereo partly drawn) | 32 µg/mL (≈ 84.8 µM) | –
18 | Oc1ccc(-c2nc(-c3ccc(Oc4ccc(I)cc4)cc3)no2)cc1 | 4 µg/mL (≈ 8.77 µM) | –
19 | Clc1ccc(Oc2ccc(-c3noc(-c4n[nH]cc4Cl)n3)cc2)cc1Cl | 1 µg/mL (≈ 2.45 µM) | IC50 (HepG2): 17.2 µg/mL (≈ 42.2 µM); fraction unbound at 2 h [2]: 0.022; hemolysis [3]: 1.8%
20 | Oc1ccc(-c2nc(-c3ccc(Oc4ccccn4)cc3)no2)cc1 | ≥ 128 µg/mL | –
21 | Clc1c[nH]nc1-c1nc(-c2ccc(OC3CN4CCC3CC4)cc2)no1 (stereo not drawn) | 128 µg/mL (≈ 344 µM) | –
22 | CN(C)C(=O)Oc1ccc(-c2noc(-c3ccc(O)cc3)n2)cc1 | ≥ 128 µg/mL | –
23 | Cl.Clc1c[nH]nc1-c1nc(-c2ccc(OC3CCCNC3)cc2)no1 (stereo not drawn) | ≥ 128 µg/mL | –
24 | CC(C)(C)Oc1ccc(-c2noc(-c3ccc(O)cc3)n2)cc1 | ≥ 128 µg/mL | –

Row | Compound | MIC (Staphylococcus aureus [1]) | also measured
25 | Oc1ccc(-c2nc(-c3ccc(Oc4ccccc4I)cc3)no2)cc1 | 2 µg/mL (≈ 4.38 µM) | –
26 | CN(C)C(=O)CCOc1ccc(-c2noc(-c3ccc(O)cc3)n2)cc1 | ≥ 128 µg/mL | –
27 | Clc1c[nH]nc1-c1nc(-c2ccc(OC3CCNCC3)cc2)no1 | ≥ 128 µg/mL | –
28 | CN[C@H](CC(C)C)C(=O)N[C@H]1C(=O)N[C@@H](CC(N)=O)C(=O)N[C@H]2C(=O)N[C@H]3C(=O)N[C@H](C(=O)N[C@H](C(=O)O)c4cc(O)cc(O)c4-c4cc3ccc4O)[C@H](O)c3ccc(c(Cl)c3)Oc3cc2cc(c3O[C@@H]2O[C@H](CO)[C@@H](O)[C@H](O)[C@H]2O[C@H]2C[C@](C)(N)[C@H](O)[C@H](C)O2)Oc2ccc(cc2Cl)[C@H]1O [VANCOMYCIN] | – | MIC (Staphylococcus aureus [4]): 32 µg/mL (≈ 22.1 µM); MIC [5]: 4 µg/mL (≈ 2.76 µM); MIC (Enterococcus faecalis [6]): 1 µg/mL (≈ 0.69 µM); MIC (Enterococcus faecalis [7]): 2 µg/mL (≈ 1.38 µM); MIC (Staphylococcus aureus [8]): 64 µg/mL (≈ 44.2 µM)
29 | O=C(O)c1ccc(Oc2ccc(-c3noc(-c4ccc(O)cc4)n3)cc2)cc1 | 64 µg/mL (≈ 171 µM) | –
30 | OCc1ccccc1Oc1ccc(-c2noc(-c3ccc(O)cc3)n2)cc1 | ≥ 128 µg/mL | –
31 | [N-]=[N+]=Nc1cccc(Oc2ccc(-c3noc(-c4ccc(O)cc4)n3)cc2)c1 | 2 µg/mL (≈ 5.39 µM) | –
32 | Nc1ccccc1Oc1ccc(-c2noc(-c3ccc(O)cc3)n2)cc1 | ≥ 128 µg/mL | –
33 | O=C(c1cccc(Oc2ccc(-c3noc(-c4ccc(O)cc4)n3)cc2)c1)C(F)(F)F | 4 µg/mL (≈ 9.38 µM) | –
34 | [N-]=[N+]=Nc1ccccc1Oc1ccc(-c2noc(-c3ccc(O)cc3)n2)cc1 | 2 µg/mL (≈ 5.39 µM) | –
35 | Fc1ccc(Oc2ccc(-c3noc(-c4n[nH]cc4Cl)n3)cc2)cc1Cl | 2 µg/mL (≈ 5.11 µM) | IC50 (HepG2): 21 µg/mL (≈ 53.7 µM); fraction unbound at 2 h [2]: 0.088; hemolysis [3]: 2.9%
36 | CC(C)(C)OC(=O)NC1CCC(Oc2ccc(-c3noc(-c4ccc(O)cc4)n3)cc2)CC1 (stereo not drawn) | ≥ 128 µg/mL | –
37 | Cl.NCCCOc1ccc(-c2noc(-c3ccc(O)cc3)n2)cc1 | 16 µg/mL | –
38 | COc1ccc(-c2noc(-c3ccc(O)cc3)n2)cc1 | 32 µg/mL (≈ 119 µM) | –
39 | N#Cc1ccc(Oc2ccc(-c3noc(-c4n[nH]cc4Cl)n3)cc2)cc1 | 128 µg/mL (≈ 352 µM) | –
40 | Oc1ccc(-c2nc(-c3ccc(OC4CCNCC4)cc3)no2)cc1 | 16 µg/mL (≈ 47.4 µM) | –
41 | Oc1ccc(-c2nc(-c3ccc(OC4CCOC4)cc3)no2)cc1 (stereo not drawn) | ≥ 128 µg/mL | –
42 | N#Cc1ccc(Oc2ccc(-c3noc(-c4ccc(O)cc4)n3)cc2)cc1 | ≥ 128 µg/mL | –
43 | Oc1ccc(-c2nc(-c3ccc(OC(F)(F)F)cc3)no2)cc1 | 1 µg/mL (≈ 3.1 µM) | IC50 (HepG2): 84.9 µg/mL (≈ 263 µM); hemolysis [3]: 16%
44 | O=C(O)c1cccc(Oc2ccc(-c3noc(-c4ccc(O)cc4)n3)cc2)c1 | 64 µg/mL (≈ 171 µM) | –
45 | Oc1ccc(-c2nc(-c3ccc(OC4CN5CCC4CC5)cc3)no2)cc1 (stereo not drawn) | 64 µg/mL (≈ 176 µM) | –
46 | COc1ccc(Oc2ccc(-c3noc(-c4ccc(O)cc4)n3)cc2)cc1 | 2 µg/mL (≈ 5.55 µM) | –
47 | FC(F)(F)Oc1ccc(-c2noc(-c3n[nH]cc3Cl)n2)cc1 | ≥ 128 µg/mL | –
48 | CC(=O)N1CCC(Oc2ccc(-c3noc(-c4ccc(O)cc4)n3)cc2)CC1 | ≥ 128 µg/mL | –

Row | Compound | MIC (Staphylococcus aureus [1]) | also measured
49 | O=[N+]([O-])c1ccccc1Oc1ccc(-c2noc(-c3ccc(O)cc3)n2)cc1 | 4 µg/mL (≈ 10.7 µM) | –
50 | CC(C)(C)OC(=O)NCCCOc1ccc(-c2noc(-c3ccc(O)cc3)n2)cc1 | ≥ 128 µg/mL | –
51 | Oc1ccc(-c2nc(-c3ccc(Oc4ccc(Br)cc4)cc3)no2)cc1 | 2 µg/mL (≈ 4.89 µM) | –
52 | Oc1ccc(-c2noc(-c3ccc(O)cc3)n2)cc1 | ≥ 128 µg/mL | –
53 | CC(C)(C)OC(=O)N1CCC(Oc2ccc(-c3noc(-c4n[nH]cc4Cl)n3)cc2)C1 (stereo not drawn) | ≥ 128 µg/mL | –
54 | Oc1ccc(Oc2ccc(-c3noc(-c4ccc(O)cc4)n3)cc2)cc1 | 16 µg/mL (≈ 46.2 µM) | –
55 | CN1CCCC(Oc2ccc(-c3noc(-c4ccc(O)cc4)n3)cc2)C1 (stereo not drawn) | 64 µg/mL (≈ 182 µM) | –
56 | CN1CCCC(Oc2ccc(-c3noc(-c4n[nH]cc4Cl)n3)cc2)C1 (stereo not drawn) | 128 µg/mL (≈ 356 µM) | –
57 | Cc1nc2cc(Oc3ccc(-c4noc(-c5n[nH]cc5Cl)n4)cc3)ccc2s1 | 16 µg/mL (≈ 39 µM) | –
58 | Cl.NC1CCC(Oc2ccc(-c3noc(-c4ccc(O)cc4)n3)cc2)CC1 (stereo not drawn) | ≥ 128 µg/mL | –
59 | Oc1ccc(-c2nc(-c3ccc(Oc4ccc(OC(F)(F)F)cc4)cc3)no2)cc1 | 2 µg/mL (≈ 4.83 µM) | IC50 (HepG2): 16.9 µg/mL (≈ 40.8 µM); fraction unbound at 2 h [2]: 0.002; hemolysis [3]: 2.1%
60 | Oc1ccc(-c2nc(-c3ccc(Oc4ccc(CBr)cc4)cc3)no2)cc1 | ≥ 128 µg/mL | –
61 | FC(F)(F)Oc1ccc(-c2noc(-c3ccc4[nH]ccc4c3)n2)cc1 | ≥ 128 µg/mL | –
62 | COc1ccc(-c2noc(-c3n[nH]cc3Cl)n2)cc1 | ≥ 128 µg/mL | –
63 | Oc1ccc(-c2nc(-c3ccc4oc5ccc(F)cc5c4c3)no2)cc1 | ≥ 128 µg/mL | –
64 | CN1[C@@H]2CC[C@@H]1CC(Oc1ccc(-c3noc(-c4n[nH]cc4Cl)n3)cc1)C2 (stereo partly drawn) | 64 µg/mL (≈ 166 µM) | –
65 | FC(F)(F)Oc1ccc2oc3ccc(-c4noc(-c5n[nH]cc5Cl)n4)cc3c2c1 | > 128 µg/mL | –
66 | Oc1ccc(-c2nc(-c3ccc(Oc4cccc(Br)c4)cc3)no2)cc1 | 4 µg/mL (≈ 9.77 µM) | –
67 | [N-]=[N+]=Nc1ccc(Oc2ccc(-c3noc(-c4ccc(O)cc4)n3)cc2)cc1 | 2 µg/mL (≈ 5.39 µM) | –
68 | Cl.Oc1ccc(-c2nc(-c3ccc(OC4CCNC4)cc3)no2)cc1 (stereo not drawn) | 16 µg/mL | –
69 | Clc1c[nH]nc1-c1nc(-c2ccc(OC3CCCC3)cc2)no1 | ≥ 128 µg/mL | –
70 | CS(=O)(=O)Oc1ccc(-c2noc(-c3ccc(O)cc3)n2)cc1 | ≥ 128 µg/mL | –
71 | CC(=O)c1ccc(Oc2ccc(-c3noc(-c4n[nH]cc4Cl)n3)cc2)cc1 | ≥ 128 µg/mL | –
72 | CC(C)(C)OC(=O)N1CCC(Oc2ccc(-c3noc(-c4n[nH]cc4Cl)n3)cc2)CC1 | ≥ 128 µg/mL | –
